Patent US9452990B2, “Complement pathway modulators and uses thereof” (NOVARTIS AG, priority 2012, dated 2016)
Counter-ions that a name gives are not always drawn. Like-named read-outs stand apart in the source and are kept apart here.

Molecular target: human complement factor B (CVF-Bb complex) (Homo sapiens (Human), UniProt P00751)
Assay: Human Complement Factor B ELISA Assay
Type: biochemical
Procedure: Human Complement Factor B ELISA Assay
CVF-Bb complex prepared from purified cobra venom factor (1 μM), recombinant human complement factor B (expressed in drosophila cells and purified using standard methods) and human complement factor D (expressed in E. Coli, refolded and purified using standard methods). CVF-Bb complex at 3 nM concentration was incubated with test compound at various concentrations for 1 hour at room temperature in PBS pH 7.4 containing 10 mM MgCl2 and 0.05% (w/v) CHAPS. Human complement C3 substrate purified from plasma was added to a final concentration of 1 μM. After 1 hour incubation at room temperature, the enzyme reaction was stopped by addition of a cocktail of concentrated pan-protease inhibitors. The product of the reaction, C3a, was quantified by means of an enzyme-linked-immunosorbent assay. IC50 values were calculated from percentage of inhibition of CVF-Bb activity as a function of test compound concentration.

[1] = CVF-Bb complex 3 nM, 1 hour preincubation with compound at room temperature, human C3 substrate 1 μM, C3a quantified by ELISA, read-out: Factor B IC50

| Structure (SMILES) | IC50 [1] [nM] | IC50 [nM] |
| --- | --- | --- |
| COc1cc2c(N)nc(N3CCN(C(=O)/C=C/C4CC4)CC3)nc2c(Br)c1OC [Example 15, (E)-1-(4-(4-Amino-8-bromo-6,7-dimethoxyquinazolin-2-yl)piperazin-1-yl)-3-cyclopropylprop-2-en-1-one] | 1280 |  |
| COc1cc2c(N)nc(N3CCN(C(=O)/C=C/c4ccc(F)cc4)CC3)nc2c(Cl)c1OC [Example 16, (E)-1-(4-(4-Amino-8-chloro-6,7-dimethoxyquinazolin-2-yl)piperazin-1-yl)-3-(4-fluorophenyl)prop-2-en-1-one] | 1440 |  |
| COc1cc2c(N)nc(N3CCN(C(=O)c4cc5ccccc5[nH]4)CC3)nc2c(F)c1OC [Example 17, [4-(4-Amino-8-fluoro-6,7-dimethoxy-quinazolin-2-yl)-piperazin-1-yl]-(1H-indol-2-yl)-methanone] | 340 |  |
| COc1cc2c(N)nc(N3CCN(C(=O)c4cc5cc(C#N)ccc5[nH]4)CC3)nc2c(F)c1OC [Example 18, 2-[4-(4-Amino-8-fluoro-6,7-dimethoxy-quinazolin-2-yl)-piperazine-1-carbonyl]-1H-indole-5-carbonitrile] | 20 |  |
| COc1cc2c(N)nc(N3CCN(C(=O)c4cc5cc(O)ccc5[nH]4)CC3)nc2c(F)c1OC [Example 19, [4-(4-Amino-8-fluoro-6,7-dimethoxy-quinazolin-2-yl)-piperazin-1-yl]-(5-hydroxy-1H-indol-2-yl)-methanone] | 80 |  |
| COc1cc2c(N)nc(N3CCN(C(=O)c4cc5c(OC)cccc5[nH]4)CC3)nc2c(F)c1OC [Example 20, [4-(4-Amino-8-fluoro-6,7-dimethoxy-quinazolin-2-yl)-piperazin-1-yl]-(4-methoxy-1H-indol-2-yl)-methanone] | 9630 |  |
| COc1cc2c(N)nc(N3CCN(C(=O)c4cc5cc(F)ccc5[nH]4)CC3)nc2c(F)c1OC [Example 21, [4-(4-Amino-8-fluoro-6,7-dimethoxy-quinazolin-2-yl)-piperazin-1-yl]-(5-fluoro-1H-indol-2-yl)-methanone] | 70 |  |
| COc1cc2c(N)nc(N3CCN(C(=O)c4cc5cc(F)cc(F)c5[nH]4)CC3)nc2c(F)c1OC [Example 22, [4-(4-Amino-8-fluoro-6,7-dimethoxy-quinazolin-2-yl)-piperazin-1-yl]-(5,7-difluoro-1H-indol-2-yl)-methanone] | 17 |  |
| COc1cc2c(N)nc(N3CCN(C(=O)c4cc5cc(C#N)ccc5[nH]4)C[C@@H]3C)nc2c(F)c1OC [Example 23, 2-[(S)-4-(4-Amino-8-fluoro-6,7-dimethoxy-quinazolin-2-yl)-3-methyl-piperazine-1-carbonyl]-1H-indole-5-carbonitrile] | 15 |  |
| COc1cc2c(N)nc(N3CCN(C(=O)c4cc5cc(F)ccc5[nH]4)C[C@@H]3C)nc2c(F)c1OC [Example 24, [(S)-4-(4-Amino-8-fluoro-6,7-dimethoxy-quinazolin-2-yl)-3-methyl-piperazin-1-yl]-(5-fluoro-1H-indol-2-yl)-methanone] | 90 |  |
| CC[C@H]1CN(C(=O)c2cc3cc(C#N)ccc3[nH]2)CCN1c1nc(N)c2cc(OC)c(OC)c(F)c2n1 [Example 25, 2-[(S)-4-(4-Amino-8-fluoro-6,7-dimethoxy-quinazolin-2-yl)-3-ethyl-piperazine-1-carbonyl]-1H-indole-5-carbonitrile] | 6 |  |
| CCC[C@H]1CN(C(=O)c2cc3cc(C#N)ccc3[nH]2)CCN1c1nc(N)c2cc(OC)c(OC)c(F)c2n1 [Example 26, 2-[(S)-4-(4-Amino-8-fluoro-6,7-dimethoxy-quinazolin-2-yl)-3-propyl-piperazine-1-carbonyl]-1H-indole-5-carbonitrile] | 11 |  |
| CCC[C@H]1CN(C(=O)c2cc3cc(F)ccc3[nH]2)CCN1c1nc(N)c2cc(OC)c(OC)c(F)c2n1 [Example 27, [(S)-4-(4-Amino-8-fluoro-6,7-dimethoxy-quinazolin-2-yl)-3-propyl-piperazin-1-yl]-(5-fluoro-1H-indol-2-yl)-methanone] | 280 |  |
| COc1cc2c(N)nc(N3CCN(C(=O)c4cc5cc(C#N)ccc5[nH]4)C[C@@H]3c3ccccc3)nc2c(F)c1OC [Example 28, 2-[(S)-4-(4-Amino-8-fluoro-6,7-dimethoxy-quinazolin-2-yl)-3-phenyl-piperazine-1-carbonyl]-1H-indole-5-carbonitrile] | 5 |  |
| COc1cc2c(N)nc(N3CCN(C(=O)c4cc5cc(F)ccc5[nH]4)C[C@@H]3c3ccccc3)nc2c(F)c1OC [Example 29, (S)-(4-(4-amino-8-fluoro-6,7-dimethoxyquinazolin-2-yl)-3-phenylpiperazin-1-yl)(5-fluoro-1H-indol-2-yl)methanone] | 14 |  |
| COCCOc1c(OC)cc2c(N)nc(N3CCN(C(=O)c4cc5cc(Cl)ccc5[nH]4)C[C@@H]3C)nc2c1F [Example 30, {(S)-4-[4-Amino-8-fluoro-6-methoxy-7-(2-methoxy-ethoxy)-quinazolin-2-yl]-3-methyl-piperazin-1-yl}-(5-chloro-1H-indol-2-yl)-methanone] | 70 |  |

| Structure (SMILES) | IC50 [1] [nM] | IC50 [nM] |
| --- | --- | --- |
| C#CC[C@H](N)CC(=O)N1CCN(c2nc(N)c3cc(OC)c(OC)c(F)c3n2)CC1 [Example 31, (S)-3-Amino-1-[4-(4-amino-8-fluoro-6,7-dimethoxy-quinazolin-2-yl)-piperazin-1-yl]-hex-5-yn-1-one] | 1040 |  |
| COc1cc2c(N)nc(N3CCN(C(=O)C[C@@H](N)C4CCCC4)CC3)nc2c(F)c1OC [Example 32, (R)-3-Amino-1-[4-(4-amino-8-fluoro-6,7-dimethoxy-quinazolin-2-yl)-piperazin-1-yl]-3-cyclopentyl-propan-1-one] | 100 |  |
| COc1cc2c(N)nc(N3CCN(C(=O)C[C@@H](N)CC(C)C)CC3)nc2c(F)c1OC [Example 33, (S)-3-Amino-1-[4-(4-amino-8-fluoro-6,7-dimethoxy-quinazolin-2-yl)-piperazin-1-yl]-5-methyl-hexan-1-one] | 680 |  |
| COc1cc2c(N)nc(N3CCN(C(=O)C[C@@H](N)c4ccco4)CC3)nc2c(F)c1OC [Example 34, (R)-3-Amino-1-[4-(4-amino-8-fluoro-6,7-dimethoxy-quinazolin-2-yl)-piperazin-1-yl]-3-furan-2-yl-propan-1-one hydrochloride] |  | 90 |
| COc1cc2c(N)nc(N3CCN(C(=O)C[C@@H](N)c4ccoc4)CC3)nc2c(F)c1OC [Example 35, (R)-3-Amino-1-[4-(4-amino-8-fluoro-6,7-dimethoxy-quinazolin-2-yl)piperazin-1-yl]-3-furan-3-yl-propan-1-one hydrochloride] |  | 310 |
| COc1cc2c(N)nc(N3CCN(C(=O)C[C@@H](N)c4cccs4)CC3)nc2c(F)c1OC [Example 36, (R)-3-Amino-1-[4-(4-amino-8-fluoro-6,7-dimethoxy-quinazolin-2-yl)-piperazin-1-yl]-3-thiophen-2-yl-propan-1-one hydrochloride] |  | 190 |
| COc1cc2c(N)nc(N3CCN(C(=O)C[C@@H](N)c4ccsc4)CC3)nc2c(F)c1OC [Example 37, (R)-3-Amino-1-[4-(4-amino-8-fluoro-6,7-dimethoxy-quinazolin-2-yl)-piperazin-1-yl]-3-thiophen-3-yl-propan-1-one] | 40 |  |
| COc1cc2c(N)nc(N3CCN(C(=O)C[C@@H](N)c4ccc(C)s4)CC3)nc2c(F)c1OC [Example 38, (R)-3-Amino-1-[4-(4-amino-8-fluoro-6,7-dimethoxy-quinazolin-2-yl)piperazin-1-yl]-3-(5-methyl-thiophen-2-yl)-propan-1-one] | 180 |  |
| COc1cc2c(N)nc(N3CCN(C(=O)C[C@@H](N)c4ccccc4)CC3)nc2c(F)c1OC [Example 39, (R)-3-Amino-1-[4-(4-amino-8-fluoro-6,7-dimethoxy-quinazolin-2-yl)-piperazin-1-yl]-3-phenyl-propan-1-one] | 230 |  |
| COc1cc2c(N)nc(N3CCN(C(=O)C[C@@H](N)c4cccc(C)c4)CC3)nc2c(F)c1OC [Example 40, (R)-3-Amino-1-[4-(4-amino-8-fluoro-6,7-dimethoxy-quinazolin-2-yl)-piperazin-1-yl]-3-m-tolyl-propan-1-one] | 220 |  |
| COc1cc2c(N)nc(N3CCN(C(=O)C[C@@H](N)c4ccc(C)cc4)CC3)nc2c(F)c1OC [Example 41, (R)-3-Amino-1-[4-(4-amino-8-fluoro-6,7-dimethoxy-quinazolin-2-yl)-piperazin-1-yl]-3-p-tolyl-propan-1-one] | 70 |  |
| C#Cc1ccc([C@H](N)CC(=O)N2CCN(c3nc(N)c4cc(OC)c(OC)c(F)c4n3)CC2)cc1 [Example 42, (R)-3-Amino-1-[4-(4-amino-8-fluoro-6,7-dimethoxy-quinazolin-2-yl)-piperazin-1-yl]-3-(4-ethynyl-phenyl)-propan-1-one hydrochloride] |  | 510 |
| COc1cc2c(N)nc(N3CCN(C(=O)C[C@@H](N)c4cccc(C#N)c4)CC3)nc2c(F)c1OC [Example 43, 3-{(R)-1-Amino-3-[4-(4-amino-8-fluoro-6,7-dimethoxy-quinazolin-2-yl)-piperazin-1-yl]-3-oxo-propyl}-benzonitrile] | 40 |  |
| COc1cc2c(N)nc(N3CCN(C(=O)C[C@@H](N)c4ccc(C#N)cc4)CC3)nc2c(F)c1OC [Example 44, 4-{(R)-1-Amino-3-[4-(4-amino-8-fluoro-6,7-dimethoxy-quinazolin-2-yl)piperazin-1-yl]-3-oxo-propyl}-benzonitrile hydrochloride] |  | 10 |
| COc1cc2c(N)nc(N3CCN(C(=O)C[C@@H](N)c4cccc(F)c4)CC3)nc2c(F)c1OC [Example 45, (R)-3-Amino-1-[4-(4-amino-8-fluoro-6,7-dimethoxy-quinazolin-2-yl)-piperazin-1-yl]-3-(3-fluoro-phenyl)-propan-1-one] | 50 |  |
